Results from patent publication US7795290B2 (Genentech, Inc., priority 2004, dated 2010).

Molecular target: T1, AKT1 (Homo sapiens, UniProt P31749)
T1 construct: purchased Upstate 14-276
Experiment: HTS ATP-utilizing enzyme assay, off-chip mobility-shift (Caliper HTS 250)
Format: biochemical
Conditions: kinase named = inhibitory activity/selectivity; test compound 10 μM; active = greater than three-sigma from mean
Procedure, shortened: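 AKT1 activity was measured by off-chip mobility shift (Caliper HTS 250) as the ratio of peptide substrate to phosphorylated product. Test compound was at 10 μM, with 2.5 h incubation at 20–22° C. EDTA wells served as 100% control and DMSO wells as 0%. Hits were called at three-sigma limits.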

T1 sequence (P31749 whole entry): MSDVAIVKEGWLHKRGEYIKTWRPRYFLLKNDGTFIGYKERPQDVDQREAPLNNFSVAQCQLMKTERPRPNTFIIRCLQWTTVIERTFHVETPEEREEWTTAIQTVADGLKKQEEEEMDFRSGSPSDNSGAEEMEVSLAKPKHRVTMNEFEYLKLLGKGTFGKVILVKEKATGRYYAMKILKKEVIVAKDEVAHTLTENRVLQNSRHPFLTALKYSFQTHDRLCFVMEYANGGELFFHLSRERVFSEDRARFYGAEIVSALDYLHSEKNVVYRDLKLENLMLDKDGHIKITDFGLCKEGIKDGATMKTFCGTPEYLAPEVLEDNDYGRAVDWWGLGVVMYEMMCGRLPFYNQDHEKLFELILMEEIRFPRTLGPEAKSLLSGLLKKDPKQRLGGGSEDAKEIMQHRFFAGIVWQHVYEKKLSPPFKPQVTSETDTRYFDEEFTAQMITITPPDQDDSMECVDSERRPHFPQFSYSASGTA

Activity, AKT1:
O=C(c1cccs1)N(CCCN1CCOCC1)c1nc(-c2ccc(Cl)cc2)cs1 [N-(4-(4-chlorophenyl)thiazol-2-yl)-N-(3-morpholinopropyl)thiophene-2-carboxamide]
O=C(c1cccs1)N(CCCN1CCOCC1)c1nc(-c2ccc(F)c(F)c2)cs1 [N-(4-(3,4-difluorophenyl)thiazol-2-yl)-N-(3-morpholinopropyl)thiophene-2-carboxamide]
O=C(O)CCOc1ccc(-c2csc(N(CCCN3CCOCC3)C(=O)c3cccs3)n2)cc1 [3-(4-(2-(N-(3-morpholinopropyl)thiophene-2-carboxamido)thiazol-4-yl)phenoxy)propanoic acid]
COc1ccc(-c2csc(N(CCCN3CCCC3)C(=O)c3cccs3)n2)cc1 [N-(4-(4-methoxyphenyl)thiazol-2-yl)-N-(3-(pyrrolidin-1-yl)propyl)thiophene-2-carboxamide]
O=C(C1CCC1)N(CCCN1CCOCC1)c1nc(-c2cc3ccccc3o2)cs1 [N-(4-(benzofuran-2-yl)thiazol-2-yl)-N-(3-morpholinopropyl)cyclobutanecarboxamide]
O=C(NCc1cccc(Cl)c1)c1csc(N(CCCN2CCOCC2)C(=O)c2cccs2)n1 [N-(3-chlorobenzyl)-2-(N-(3-morpholinopropyl)thiophene-2-carboxamido)thiazole-4-carboxamide]
O=C(CN1CCOCC1)NCCCN(C(=O)c1cccs1)c1nc(-c2cc3ccccc3o2)cs1 [N-(4-(benzofuran-2-yl)thiazol-2-yl)-N-(3-(2-morpholinoacetamido)propyl)thiophene-2-carboxamide]
CN(C)C1CCN(CCCN(C(=O)c2cccs2)c2nc(-c3cc4ccccc4o3)cs2)C1 (stereo not drawn) [N-(4-(benzofuran-2-yl)thiazol-2-yl)-N-(3-(3-(dimethylamino)pyrrolidin-1-yl)propyl)thiophene-2-carboxamide]
NC(=O)C1CCCN(C(=O)CCCN(C(=O)c2cccs2)c2nc(-c3cc4ccccc4o3)cs2)C1 (stereo not drawn) [1-(4-(N-(4-(benzofuran-2-yl)thiazol-2-yl)thiophene-2-carboxamido)butanoyl)piperidine-3-carboxamide]
O=C(O)COc1cccc(-c2csc(N(CCCN3CCOCC3)C(=O)c3cccs3)n2)c1 [2-(3-(2-(N-(3-morpholinopropyl)thiophene-2-carboxamido)thiazol-4-yl)phenoxy)acetic acid]
COc1cccc(-c2csc(N(CCCN3CCOCC3)C(=O)c3cccs3)n2)c1 [N-(4-(3-methoxyphenyl)thiazol-2-yl)-N-(3-morpholinopropyl)thiophene-2-carboxamide]
COc1ccc(OC)c(-c2csc(N(CCCN3CCCCCC3)C(=O)c3ccco3)n2)c1 [N-(3-(azepan-1-yl)propyl)-N-(4-(2,5-dimethoxyphenyl)thiazol-2-yl)furan-2-carboxamide]
O=C(CCCN(C(=O)c1cccs1)c1nc(-c2cc3ccccc3o2)cs1)N1CCSC1 [N-(4-(benzofuran-2-yl)thiazol-2-yl)-N-(4-oxo-4-(thiazolidin-3-yl)butyl)thiophene-2-carboxamide]
CC(CO)NC(=O)CCCN(C(=O)c1cccs1)c1nc(-c2cc3ccccc3o2)cs1 (stereo not drawn) [N-(4-(benzofuran-2-yl)thiazol-2-yl)-N-(4-(1-hydroxypropan-2-ylamino)-4-oxobutyl)thiophene-2-carboxamide]
CNC(=O)c1ccc(-c2csc(N(CCCN3CCOCC3)C(=O)c3cccs3)n2)cc1 [N-(4-(4-(methylcarbamoyl)phenyl)thiazol-2-yl)-N-(3-morpholinopropyl)thiophene-2-carboxamide]
